In series [1] the test system is L1210. Put plainly: Ratio of ILSmax to ILS30 for antileukemic activity against mouse L1210 cells allografted in ip dosed BDF1 mouse. The format is functional.
The test system of series [2] is L1210. Put plainly: Cytotoxicity against mouse L1210 cells assessed as growth inhibition after 72 hrs. To be noted: L1210, 72 h, read-out: ED50 (the source's name). Format: functional.
The subject of series [3] is L1210. Put plainly: Antileukemic activity against mouse L1210 cells allografted in ip dosed BDF1 mouse administered 24 hrs. Format: functional.
For series [4], the system named is L1210. The series is described as follows: Antileukemic activity against mouse L1210 cells allografted in ip dosed BDF1 mouse assessed as maximum tolerated dose for survival over 30 days administered 24 hrs. The format is functional.
For series [5], the system named is Mus musculus. Put plainly: Toxicity in BDF1 mouse allografted with mouse L1210 cells assessed as mortality at 80 mg/kg, ip administered 24 hrs measured within 30 days. The format is organism-based. Details: dose 80 mg/kg, route intraperitoneal. To be noted: in vivo.
In series [6] the test system is L1210. The series is described as follows: Antileukemic activity against mouse L1210 cells allografted in BDF1 mouse assessed as mean survival time at 100 mg/kg, ip administered 24 hrs (Rvb 4.6 +/- 0.16 days). Format: functional. To be noted: route intraperitoneal.
Series [7] deals with Mus musculus. The series is described as follows: Acute toxicity in iv dosed BDF1 mouse. The note with it: in vivo. The format is organism-based.
For series [8], the system named is L1210. The series is described as follows: Antileukemic activity against mouse L1210 cells allografted in BDF1 mouse assessed as mean survival time at 2 mg/kg, ip administered 24 hrs (Rvb 4.6 +/- 0.16 days). The note with it: route intraperitoneal. Format: functional.
Series [9] relates to Mus musculus. The series is described as follows: Acute toxicity in ip dosed BDF1 mouse. The note with it: in vivo. Format: organism-based.
Series [10] concerns L1210. Put plainly: Antileukemic activity against mouse L1210 cells allografted in po dosed BDF1 mouse assessed as survival over 60 days administered 24 hrs. Format: functional. To be noted: read-out: MED.
Series [11] deals with L1210. Put plainly: Ratio of Cmax to Cmin for antileukemic activity against mouse L1210 cells allografted in ip dosed BDF1 mouse assessed as survival over 60 days. The format is functional.
In series [12] the test system is L1210. The series is described as follows: Antileukemic activity against mouse L1210 cells allografted in BDF1 mouse assessed as increase in life span at 10 mg/kg, ip administered 24 hrs relative to control. The format is functional. The note with it: route intraperitoneal.
Series [13] deals with Rattus norvegicus. Put plainly: Acute toxicity in po dosed Wistar rat. Format: organism-based. To be noted: in vivo.
In series [14] the test system is L1210. Put plainly: Ratio of Cmax to Cmin for antileukemic activity against mouse L1210 cells allografted in iv dosed BDF1 mouse assessed as survival over 60 days. The format is functional.
Series [15] has as its system L1210. Put plainly: Antileukemic activity against mouse L1210 cells allografted in BDF1 mouse assessed as increase in survivor over 30 days at 100 mg/kg, ip administered 24 hrs. Format: functional, organism-based. On the set-up: dose 100 mg/kg.
Series [16] relates to L1210. Put plainly: Antileukemic activity against mouse L1210 cells allografted in po dosed BDF1 mouse assessed as maximum tolerated dose for survival over 60 days administered 24 hrs. The format is functional.
The subject of series [17] is L1210. The series is described as follows: Antileukemic activity against mouse L1210 cells allografted in iv dosed BDF1 mouse assessed as survival over 60 days administered 24 hrs. The note with it: read-out: MED. Format: functional.
Series [18] has as its system L1210. The series is described as follows: Antileukemic activity against mouse L1210 cells allografted in BDF1 mouse assessed as increase in life span at 2 mg/kg, ip administered 24 hrs relative to control. Format: functional. To be noted: route intraperitoneal.
The test system of series [19] is Mus musculus. Put plainly: Acute toxicity in po dosed BDF1 mouse. Format: organism-based. To be noted: in vivo.
For series [20], the system named is Rattus norvegicus. The series is described as follows: Acute toxicity in iv dosed Wistar rat. The note with it: in vivo. Format: organism-based.
The subject of series [21] is L1210. Put plainly: Antileukemic activity against mouse L1210 cells allografted in ip dosed BDF1 mouse assessed as maximum tolerated dose for survival over 60 days administered 24 hrs. Format: functional.
The test system of series [22] is L1210. Put plainly: Antileukemic activity against mouse L1210 cells allografted in BDF1 mouse assessed as mean survival time at 50 mg/kg, ip administered 24 hrs (Rvb 4.6 +/- 0.16 days). The format is functional. The note with it: route intraperitoneal.
Series [23] concerns L1210. The series is described as follows: Antileukemic activity against mouse L1210 cells allografted in ip dosed BDF1 mouse assessed as survival over 60 days administered 24 hrs. Format: functional. To be noted: read-out: MED.
Series [24] relates to L1210. Put plainly: Antileukemic activity against mouse L1210 cells allografted in iv dosed BDF1 mouse assessed as maximum tolerated dose for survival over 60 days administered 24 hrs. The format is functional.
The test system of series [25] is L1210. The series is described as follows: Antileukemic activity against mouse L1210 cells allografted in BDF1 mouse assessed as increase in life span at 100 mg/kg, ip administered 24 hrs relative to control. The format is functional. To be noted: route intraperitoneal.
Series [26] relates to L1210. The series is described as follows: Antileukemic activity against mouse L1210 cells allografted in BDF1 mouse assessed as mean survival time at 10 mg/kg, ip administered 24 hrs (Rvb 4.6 +/- 0.16 days). To be noted: route intraperitoneal. The format is functional.
In series [27] the test system is Rattus norvegicus. The series is described as follows: Acute toxicity in ip dosed Wistar rat. Format: organism-based. To be noted: in vivo.
The subject of series [28] is L1210. Put plainly: Antileukemic activity against mouse L1210 cells allografted in BDF1 mouse assessed as increase in life span at 50 mg/kg, ip administered 24 hrs relative to control. Format: functional. To be noted: route intraperitoneal.
Series [29] concerns L1210. Put plainly: Ratio of Cmax to Cmin for antileukemic activity against mouse L1210 cells allografted in po dosed BDF1 mouse assessed as survival over 60 days. The format is functional.
Series [30] deals with L1210. The series is described as follows: Antileukemic activity against mouse L1210 cells allografted in BDF1 mouse assessed as increase in life span at 200 mg/kg, ip administered 24 hrs relative to control. The format is functional. The note with it: route intraperitoneal.
Series [31] concerns L1210. Put plainly: Antileukemic activity against mouse L1210 cells allografted in BDF1 mouse assessed as increase in life span at 400 mg/kg, ip administered 24 hrs relative to control.
The subject of series [32] is L1210. Put plainly: Antileukemic activity against mouse L1210 cells allografted in BDF1 mouse assessed as mean survival time at 200 mg/kg, ip administered 24 hrs (Rvb 4.6 +/- 0.16 days). The format is functional. The note with it: route intraperitoneal.

≈ marks a conversion by molar mass, not a printed value. Calls of active or inactive are those of the source. No cut-off for these calls is given here. Where only a bound is given, the exact number is not on record here.

With `CCS(=O)(=O)OCCN(C)P1(=O)OCCC(OO)N1CCCl` (stereo not given), the Ratio in series [1] amounted to 8. Moreover, in [2], the EC50 worked out at 0.8 µg/mL (≈ 2.1 µM). This compound gave an ILS30 in [3] of 10 mg/kg. Moreover, the ILSmax in [4] turned out to be 80 mg/kg.
For `CS(=O)(=O)OCCN1C(OO)CCOP1(=O)N(CCCl)CCCl` (stereo not given), the Ratio in series [1] is 8. Further, in [5], the Activity result is on record as “Toxic”. Moreover, the EC50 in [2] stood at 0.06 µg/mL (≈ 0.144 µM). This compound also gave an ILS30 in series [3] of 10 mg/kg. In addition, the ILSmax in series [4] came to 80 mg/kg.
Consider `CN(CCCl)P1(=O)OCCC(OO)N1CCOS(C)(=O)=O` (stereo not given), for which the MST in series [6] is more than 15.8 days; in series [8] it was 6.6 days; in series [22] it was more than 26.1 days; in series [26], 11.4 days. The LD10 in series [7] was 120 mg/kg; in series [9] it was 134 mg/kg; in series [13], 238 mg/kg; in series [19], 284 mg/kg; in series [20] it was 66 mg/kg; in series [27], 41 mg/kg. Further, the Ratio is 40 in [1], 10 in series [11], 6.6 in series [14] and 4 in series [29]. Also, the minimal effective dose in series [10] amounted to 50 mg/kg; in series [17], 15 mg/kg; in series [23], 10 mg/kg. In [12], the ILS at 10 mg/kg worked out at 147%. For the same compound, the result in series [15] was Active. Moreover, the MTD amounted to 200 mg/kg in series [16], 100 mg/kg in series [21] and 100 mg/kg in series [24]. In series [18], the ILS at 2 mg/kg worked out at 44%. For the same compound, the EC50 in series [2] came out at 0.8 µg/mL (≈ 2.18 µM). The compound further returned an ILS30 in [3] of 2 mg/kg. The ILS at 100 mg/kg in series [25] was more than 242%. Further, in [4], the ILSmax worked out at 80 mg/kg. The increase in life span (ILS) at 50 mg/kg in series [28] was more than 468%.
As to `CCS(=O)(=O)OCCN1C(OO)CCOP1(=O)N(C)CCCl` (stereo not given), in [1], the Ratio was 14. For the same compound, the EC50 in [2] was 1 µg/mL (≈ 2.63 µM). Besides, in series [3], the ILS30 came to 5 mg/kg. For the same compound, in [4], the ILSmax was determined as 70 mg/kg.
On the same counts, the results for `O=P1(NCCBr)OCCC(OO)N1CCBr` (stereo not given) are 12, 2 µg/mL (≈ 5.24 µM), 6 mg/kg and 70 mg/kg.
With `O=P1(N(CCCl)CCCl)NCCCO1` (stereo not given) [CYCLOPHOSPHAMIDE ANHYDROUS], the values for the MST in [6], in series [32] and in [22] were 12.4 days, more than 18.9 days and 7.8 days, respectively. In addition, in [30], the ILS at 200 mg/kg is more than 310%. Also, the ILS at 400 mg/kg in series [31] is more than 283%. For the same compound, the minimal effective dose in [10] was determined as 200 mg/kg; in series [17], 200 mg/kg; in series [23], 100 mg/kg. Moreover, the results for the Ratio in series [11], in series [14] and in series [29] were 2, 1 and 1, respectively. Besides, the MTD in series [16], in series [21] and in [24] was 200 mg/kg each time. Also, the increase in lifespan (ILS) at 100 mg/kg in [25] stood at 169%. The ILS at 50 mg/kg in series [28] turned out to be 68%.
As for `CN(CCBr)P1(=O)OCCC(OO)N1CCCl` (stereo not given), the Ratio in series [1] amounted to 12. Further, the EC50 in series [2] turned out to be 0.3 µg/mL (≈ 0.853 µM). In [3], this compound displayed an ILS30 of 6 mg/kg. The ILSmax in series [4] is 70 mg/kg.

A word on the ILS: it is the gain in survival time of treated over control animals, in per cent. The MTD is the largest dose that counted as tolerated.

These data come from ChEMBL document CHEMBL3244168, “Synthesis and antitumor activity of preactivated isophosphamide analogues bearing modified alkylating functionalities” (J Med Chem, 1978).
